The text below walks through data of patent US20050020544A1, “Bicyclic CB2 cannabinoid receptor ligands” (priority 2002, published 2005).

Where two headings read alike, the source gives them in different places.

For one data set, the system named is Female Balb/c mice. Set-up: maximal reduction in paw edema: dose or concentration left out as unconfirmed. Particulars: for maximal reduction in paw thickness (MOE) / dose at which the maximal effect was observed: i.p.; for maximal reduction in paw thickness (MOE): 3 hours after carrageenan, at the dose of maximal effect; for dose at which the maximal effect was observed: paw thickness. As to the method:
The purpose of this study is to test in vivo the anti-inflammatory activity of the compounds in paw edema induced by injection of 1% carrageenan in the animal hind paw. Female Balb/c mice (20 g average body weight, Harlan, Israel) are anesthetized with a combination of xylazine and pentobarbitone diluted in sterile saline, 15 and 6 mg/kg i.p. respectively. Anesthetized mice are injected subcutaneously, in the subplantar region of one (right) paw with 0.05 ml of 1% w/v Carrageenan in sterile water. […] The test compounds, including known anti-inflammatory controls, are dissolved in CREMOPHOR EL®:ethanol and further diluted 1:20 or 1:50 in sterile saline prior to i.p. injection that takes place immediately before the carrageenan injection. Three hours after injection the animals are resedated following the previously described procedure. Paw thickness is measured using a dial thickness gauge (Spring-dial, constant low pressure gauge, Mitutoyo, TG/L-1, 0.01 mm) and paw volume is measured using a plethysmometer (model #7150, Ugo Basile, Italy). Paw Edema is expressed as the difference between the right treated and the left untreated paws of the same animal, either as Δ Paw Volume (ΔPV) in millimeters cube or as Δ Paw Thickness (ΔPT) in millimeters. Each group comprises at least 10 animals. […] At the end of the study, animals are euthanized with an i.p. injection of 100 mg/kg pentobarbitone.
The differences among various treatment groups are analyzed by analysis of variance (ANOVA) followed by post-hoc Fisher test. A value of p<0.05 is considered to be statistically significant.
For sake of comparison, known anti-inflammatory drugs such as Celecoxib and Dexamethasone yield respectively in the range of relevant doses 7% and 26% reduction in paw thickness at 0.1 mg/kg, 16% and 31% at 0.25 mg/kg and 24% and 33% at 0.5 mg/kg. […] It should be kept in mind that these commercially available drugs display serious side effects that prevent chronic uses without complementary protective medication.

The target in another data set is T1, human CB1 receptor (Homo sapiens, UniProt P21554).
T1 construct: purchased Perkin Elmer/NEN; host or cells: HEK-293 cells, stably transfected (membranes)
Briefly: biochemical. The class given is binding. The method in brief: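 Displacement of [3H]CP55940 from membranes of HEK-293 cells stably expressing human CB1, in 50 mM Tris-HCl, 2.5 mM EDTA, 5 mM MgCl2, 1 mg/ml BSA, pH 7.4, 0.1% DMSO; 1.5 h at 30° C, then filtration.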

Another data set addresses human CB2 receptor (Homo sapiens, UniProt P34972). Briefly: biochemical. The class given is binding. Further details: purchased Perkin Elmer/NEN; host or cells: CHO cells, stably transfected (membranes). Particulars: for IC50: displacement of [3H]WIN 55212-2, hCB2 CHO membranes; for CB2/CB1 affinity ratio: IC50 CB1/IC50 CB2. The method in brief:
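Displacement of 0.8 nM [^3H]WIN 55212-2 from hCB2-transfected CHO membranes (25 μg protein) was measured in HEPES buffer pH 7.4 with MgCl2, EDTA and BSA, 40 min at 30 °C. Non-specific binding was defined with 10 μM CP 55940, then samples were filtered and β-counted. IC50 was extrapolated from log concentration vs % binding.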

The mark [1] stands for this setting: displacement of [3H]CP55940, hCB1 HEK-293 membranes, read-out: CB1 IC50.

Sequence of human CB2 receptor (P34972 whole entry): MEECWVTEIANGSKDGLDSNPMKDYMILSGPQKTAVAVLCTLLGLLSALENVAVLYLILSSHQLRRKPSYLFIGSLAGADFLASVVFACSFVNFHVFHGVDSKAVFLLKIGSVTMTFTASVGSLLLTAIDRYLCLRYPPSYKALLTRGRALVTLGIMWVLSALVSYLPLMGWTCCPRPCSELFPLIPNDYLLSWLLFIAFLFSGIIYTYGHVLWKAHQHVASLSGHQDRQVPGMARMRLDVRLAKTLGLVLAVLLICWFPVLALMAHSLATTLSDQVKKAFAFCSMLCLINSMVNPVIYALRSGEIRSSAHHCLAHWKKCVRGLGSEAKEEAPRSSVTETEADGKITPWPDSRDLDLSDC
T1 sequence (P21554 whole entry): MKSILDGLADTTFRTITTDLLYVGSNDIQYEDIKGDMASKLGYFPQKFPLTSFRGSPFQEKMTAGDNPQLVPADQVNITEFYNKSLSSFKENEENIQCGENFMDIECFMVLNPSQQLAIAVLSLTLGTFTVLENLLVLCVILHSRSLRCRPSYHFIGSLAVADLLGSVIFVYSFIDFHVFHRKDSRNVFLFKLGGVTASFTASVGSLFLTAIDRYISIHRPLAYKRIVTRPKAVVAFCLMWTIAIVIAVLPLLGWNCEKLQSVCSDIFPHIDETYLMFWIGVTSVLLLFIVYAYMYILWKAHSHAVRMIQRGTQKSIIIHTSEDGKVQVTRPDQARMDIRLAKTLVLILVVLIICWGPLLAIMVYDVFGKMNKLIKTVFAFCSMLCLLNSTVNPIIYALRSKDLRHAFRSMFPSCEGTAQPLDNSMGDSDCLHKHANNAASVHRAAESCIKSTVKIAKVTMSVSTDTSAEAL

As to `CCCCCCC(C)(C)c1cc(OC)c(C2C=C(CO)C3CC2C3(C)C)c(OC)c1` (single isomer, unassigned; (+)) [HU-308, (+) {4-[4-(1,1-dimethylheptyl)-2,6-dimethoxy-phenyl]-6,6-dimethyl-bicyclo[3.1.1]hept-2-en-2-yl}-methanol, reference compound], in the data set on Female Balb/c mice, the “maximal reduction in paw thickness (MOE)” value is “about 28%” and the “dose at which the maximal effect was observed” value (from here on “dose”) is listed as 0.6 mg/kg. Besides, the IC50 at human CB1 receptor (CB1 IC50, displacement of [3H]CP55940, hCB1 HEK-293 membranes) was 3600 nM.

As for `CCCCCCC(C)(C)c1cc(O)c(C2CC(=O)C3CC2C3(C)C)c(O)c1` (single isomer, unassigned; (-)) [Compound A, (−)-4-[4-(1,1-Dimethyl-heptyl)2,6-dihydroxy-phenyl]-6,6-dimethyl-bicyclo[3.1.1)heptan-2-one], on human CB2 receptor (compound A versus (+) enantiomer), the “IC50 to CB2, fold lower than its (+) enantiomer” value is listed as 10 fold. This compound also returned a half-inhibitory concentration (IC50) on human CB2 receptor of 1 nM. For the same compound, in the data set on Female Balb/c mice, the “maximal reduction in paw thickness (MOE)” value is recorded as 28% and the “dose” value came to 2.5 mg/kg. Moreover, the half-inhibitory concentration (IC50) on human CB1 receptor (setting [1]) amounted to 27.6 nM.

Consider `CCCCC(C)(C)c1cc(O)c(C2CC(=O)C3CC2C3(C)C)c(O)c1` (single isomer, unassigned; (-)) [Compound L, (−)-4-[4(1,1-Dimethyl-pentyl)-2,6-dihydroxy-phenyl]-6,6-dimethyl-bicyclo[3.1.1]heptan-2-one], for which, at human CB2 receptor, the CB2/CB1 affinity ratio was determined as 117 and the IC50 came to 3.8 nM. Further, in the data set on Female Balb/c mice, the “maximal reduction in paw thickness (MOE)” value was 34% and the “dose” value was found to be 0.25 mg/kg. Besides, the 50% inhibitory concentration (IC50) on human CB1 receptor (setting [1]) stood at 446 nM.

Regarding `CCCCC(C)(C)c1cc(O)c(C2CC(=O)C3CC2C3(C)C)c(OC(=O)CCC(=O)O)c1` (single isomer, unassigned; (-)) [Compound Y, (−)-4-{4-[1,1-Dimethyl-pentyl]-2-succinate-6-hydroxy-phenyl}-6,6-dimethyl-bicyclo[3.1.1]heptan-2-one], on human CB2 receptor, the CB2/CB1 affinity ratio is given as 42. Besides, the IC50 on human CB2 receptor came out at 7.4 nM; at human CB1 receptor (setting [1]) it was 315 nM.

In the case of `CCCCCCC(C)(C)c1cc(O)c([C@H]2CC(=O)[C@H]3C[C@@H]2C3(C)C)c(OC(=O)CCC(=O)O)c1` [Compound R, (−)-4-{4-[1,1-Dimethyl-heptyl]-2-succinate-6-hydroxy-phenyl}-6,6-dimethyl-bicyclo[3.1.1]heptan-2-one], on human CB2 receptor, the CB2/CB1 affinity ratio is recorded as 34 and the IC50 turned out to be 1.2 nM. The “maximal reduction in paw edema” value in the data set on Female Balb/c mice (formulated in cosolvent) was 31%. Besides, in the data set on Female Balb/c mice, the “maximal reduction in paw thickness (MOE)” value was 31% and the “dose” value amounted to 0.5 mg/kg. The therapeutic index result in the data set on Female Balb/c mice (paw edema, 0.5 mg/kg versus tolerated 40 mg/kg) is recorded as “at least 80”. Also, the IC50 at human CB1 receptor (setting [1]) was 41 nM.

As usually defined, the IC50 is the concentration that gives 50% inhibition.
